“And” between values parts separate entries of the source, which are not always exact repeats. Identical values can stand only once. Like-named read-outs stand apart in the source and are kept apart here. Marks after values point to notes of the source that are not given here.
Columns and labels:
[1] = for logP value of the minor isomer (in parenthesis in column Isomer ratio [d]): main value of the example measured by method [b]
Pyrenophora teres = assay: In vivo test on Pyrenophora teres (barley net blotch); conditions: dose of 500 ppm; barley plants; grading 12 days after contamination
Method in brief: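 Barley plants (Plaisant) grown at 12° C. sprayed at 1-leaf stage with compound in acetone/Tween/DMSO diluted in water; 24 h later inoculated with P. teres spores (12,000 spores/ml). Incubated 24 h at ~20° C., 100% RH, then 12 days at 80% RH; graded 12 days post-inoculation against untreated controls.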

[2] = system: Mycosphaerella graminicola; assay: In vivo test on Mycosphaerella graminicola (wheat leaf spot); conditions: dose of 500 ppm; wheat plants; grading 21 to 28 days after contamination
Method: In Vivo Test on Mycosphaerella graminicola (Wheat Leaf Spot)
The active ingredients tested are prepared by homogenization in a mixture of acetone/tween/DMSO, then diluted with water to obtain the desired active material concentration.
Wheat plants (Scipion variety), sown on a 50/50 peat soil-pozzolana substrate in starter cups and grown at 12° C., are treated at the 1-leaf stage (10 cm tall) by spraying with the aqueous suspension described above. Plants, used as controls, are treated with an aqueous solution not containing the active material.
After 24 hours, the plants are contaminated by spraying them with an aqueous suspension of Mycosphaerella graminicola spores (500 000 spores per ml). The spores are collected from a 7-day-old culture. The contaminated wheat plants are incubated for 72 hours at 18° C. and at 100% relative humidity, and then for 21 to 28 days at 90% relative humidity.
Grading (% of efficacy) is carried out 21 to 28 days after the contamination, in comparison with the control plants.

Fusarium proliferatum = assay: Production of fumonisin FB1 by Fusarium proliferatum (microtiter plate, HPLC-MS/MS and OD620); format: cell-based; conditions: for % inhibition FB1 production at 50 μM: 5 days at 20° C., HPLC-MS/MS; for % inhibition fungal growth at 50 μM: Fusarium proliferatum, OD620 at start and after 5 days
Puccinia recondita = assay: In vivo test on Puccinia recondita (brown rust); conditions: dose of 500 ppm; wheat plants; grading 10 days after contamination
Method: In Vivo Test on Puccinia recondita (Brown Rust)
(§1) The active ingredients tested are prepared by homogenization in a mixture of acetone/tween/DMSO, then diluted with water to obtain the desired active material.
Wheat plants (Scipion variety) sown on 50/50 peat soil-pozzolana substrate in starter cups and grown at 12° C., are treated at the 1-leaf stage (10 cm tall) by spraying with the aqueous suspension described above.
(§2) Plants, used as controls, are treated with an aqueous solution not containing the active material.
After 24 hours, the plants are contaminated by spraying the leaves with an aqueous suspension of Puccinia recondita spores (100,000 spores per ml). The spores are collected from a 10-day-old contaminated wheat and are suspended in water containing 2.5 ml/l of tween 80 10%. The contaminated wheat plants are incubated for 24 hours at 20° C. and at 100% relative humidity, and then for 10 days at 20° C. and at 70% relative humidity.
Grading is carried out 10 days after the contamination, in comparison with the control plants.

Sphaerotheca fuliginea = assay: In vivo test on Sphaerotheca fuliginea (cucurbits powdery mildew); conditions: dose of 500 ppm; gherkin plants; grading 12 days after contamination
Method: In Vivo Test on Sphaerotheca fuliginea (Cucurbits Powdery Mildew)
as §1
Gherkin plants (Vert petit de Paris variety) in starter cups, sown on a 50/50 peat soil-pozzolana substrate and grown at 20° C./23° C., are treated at the cotyledon Z10 stage by spraying with the aqueous suspension described above. Plants, used as controls, are treated with an aqueous solution not containing the active material.
After 24 hours, the plants are contaminated by spraying them with an aqueous suspension of Sphaerotheca fuliginea spores (100 000 spores per ml). The spores are collected from a contaminated plants. The contaminated gherkin plants are incubated at about 20° C./25° C. and at 60/70% relative humidity.
Grading (% of efficacy) is carried out 12 days after the contamination, in comparison with the control plants.

Botrytis cinerea = assay: In vivo test on Botrytis cinerea (grey mould); conditions: dose of 500 ppm; gherkin plants; grading 5/7 days after contamination
Method: In Vivo Test on Botrytis cinerea (Grey Mould)
The active ingredients tested are prepared by homogenization in a mixture of acetone/Tween/DMSO, then diluted with water to obtain the desired active material
Gherkin plants (Vert petit de Paris variety), sown on a 50/50 peat soil-pozzolana substrate in starter cups and grown at 18-20° C., are treated at the cotyledon Z11 stage by spraying with the active ingredient prepared as described above.
as §2
After 24 hours, the plants are contaminated by depositing drops of an aqueous suspension of Botrytis cinerea spores (150,000 spores per ml) on upper surface of the leaves. The spores are collected from a 15-day-old culture and are suspended in a nutrient solution composed of: • 20 g/L of gelatine; • 50 g/L of D-fructose; • 2 g/L of NH4NO3; • 1 g/L of KH2PO4.
The contaminated cucumber plants are settled for 5/7 days in a climatic room at 15-11° C. (day/night) and at 80% relative humidity.
Grading is carried out 5/7 days after the contamination, in comparison with the control plants.

Peronospora parasitica = assay: In vivo test on Peronospora parasitica (crucifer downy mildew); conditions: dose of 500 ppm; cabbage plants; grading 5 days after contamination
Method: In Vivo Test on Peronospora parasitica (Crucifer Downy Mildew)
The active ingredients tested are prepared by homogenization in a mixture of acetone/Tween/DMSO, then diluted with water to obtain the desired active material concentration.
Cabbage plants (Eminence variety) in starter cups, sown on a 50/50 peat soil-pozzolana substrate and grown at 18-20° C., are treated at the cotyledon stage by spraying with the aqueous suspension described above.
as §2
After 24 hours, the plants are contaminated by spraying them with an aqueous suspension of Peronospora parasitica spores (50 000 spores per ml). The spores are collected from infected plant.
The contaminated cabbage plants are incubated for 5 days at 20° C., under a humid atmosphere.
Grading is carried out 5 days after the contamination, in comparison with the control plants.

Fusarium graminearum = format: cell-based; conditions: 50 μM; for % Inhibition of DON/AcDON at 50 μM: 7 days at 28° C.
Alternaria solani = assay: Alternaria test (tomato) / protective; format: in vivo; conditions: 500 ppm active compound, protective spray, evaluated 7 days after inoculation
Method in brief: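 Young tomato plants sprayed protectively with compound formulated in DMF with alkylaryl polyglycol ether emulsifier and diluted in water to the application rate. After inoculation, plants held at 96% rel. humidity and 20° C. Efficacy scored 7 days post-inoculation: 0% equals untreated control, 100% no infection.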

[3] = logP by HPLC at pH 2.3 (0.1% phosphoric acid / acetonitrile); format: physicochemical; conditions: method [a]: pH 2.3 with 0.1% phosphoric acid and acetonitrile as eluent
Leptosphaeria nodorum = Leptosphaeria nodorum test (wheat) / protective; format: in vivo; conditions: 500 ppm active compound, protective spray, evaluated 7-9 days after inoculation
Method in brief: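 Young wheat plants sprayed protectively with compound in DMF/alkylaryl polyglycol ether emulsion diluted in water, then kept in greenhouse at 90% rel. humidity, 22° C. Scored 7-9 days after inoculation as % efficacy, 0% equal to untreated control and 100% no infection.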

Clc1ccc(-c2n[nH]cc2-c2ccncc2)s1 [Example 1]
log p ([1]; pH 2.7): 0.96^[b]
protection (Pyrenophora teres): 90%
protection (% of efficacy) [2]: 75%
% inhibition FB1 production at 50 μM (Fusarium proliferatum): 82%
% inhibition fungal growth at 50 μM (Fusarium proliferatum): 41%

Clc1ccc(-c2n[nH]cc2-c2ccncn2)s1 [Example 3]
log p ([1]; pH 2.3): 1.82^[a];
log p ([1]; pH 2.7): 1.74^[b]
protection (% of efficacy) [2]: 86%
% inhibition FB1 production at 50 μM (Fusarium proliferatum): 99%
% inhibition fungal growth at 50 μM (Fusarium proliferatum): 46%

CC(C)Cn1ncc(-c2ccncc2)c1-c1ccc(Cl)s1 [Example 6]
log p ([1]; pH 2.3): 2.2^[a]
protection (% of efficacy) [2]: 70%
protection (Puccinia recondita): 70%
protection (% of efficacy) (Sphaerotheca fuliginea): 75%

Clc1ccc(-c2nn(C3CCCC3)cc2-c2ccncc2)s1 [Example 15]
log p ([1]; pH 2.7): 2.25^[b]
protection (Pyrenophora teres): 89%
protection (Botrytis cinerea): 100%
protection (% of efficacy) (Sphaerotheca fuliginea): 92%

CC(C)CCn1cc(-c2ccncc2)c(-c2ccc(Cl)s2)n1 [Example 17]
log p ([1]; pH 2.7): 2.45^[b]
protection (Pyrenophora teres): 100%
protection (% of efficacy) [2]: 70%
protection (Puccinia recondita): 70%

Clc1ccc(-c2nn(C3CCC3)cc2-c2ccncc2)s1 [Example 18]
log p ([1]; pH 2.7): 2.04^[b]
protection (Pyrenophora teres): 100%
protection (Puccinia recondita): 89%
protection (Botrytis cinerea): 100%
protection (% of efficacy) (Sphaerotheca fuliginea): 83%

CC(C)C(C)n1ncc(-c2ccncc2)c1-c1ccc(Cl)s1 (stereo not shown) [Example 20]
log p ([1]; pH 2.7): 2.1^[b]
protection (Peronospora parasitica): at least 70%

CC(C)Cn1cc(-c2ccncc2)c(-c2ccc(Cl)s2)n1 [Example 21]
% Inhibition of fungal growth at 50 μM (Fusarium graminearum): 96%
% Inhibition of DON/AcDON at 50 μM (Fusarium graminearum): 100%
log p ([1]; pH 2.7): 2.08^[b]
protection (Pyrenophora teres): 100%
protection (% of efficacy) [2]: 85%
protection (Puccinia recondita): 75% and 85%
protection (Botrytis cinerea): 100%
protection (% of efficacy) (Sphaerotheca fuliginea): 89%
% inhibition FB1 production at 50 μM (Fusarium proliferatum): 100%
% inhibition fungal growth at 50 μM (Fusarium proliferatum): 91%

Clc1ccc(-c2nn(C3CCCCO3)cc2-c2ccncc2)s1 (stereo not shown) [Example 45]
log p ([1]; pH 2.7): 1.91^[b]
protection (% of efficacy) [2]: 71%

COCn1cc(-c2ccncc2)c(-c2ccc(Cl)s2)n1 [Example 52]
log p ([1]; pH 2.7): 1.38^[b]
protection (Pyrenophora teres): 86%
protection (% of efficacy) [2]: 97%
protection (Puccinia recondita): 97%
protection (Botrytis cinerea): at least 70%
protection (% of efficacy) (Sphaerotheca fuliginea): 90%

ClCCn1cc(-c2ccncc2)c(-c2ccc(Cl)s2)n1 [Example 55]
logP value of the minor isomer (in parenthesis in column Isomer ratio [d]) ([1]; pH 2.7): (1.50)
log p ([1]; pH 2.7): 1.65^[b]
protection (Pyrenophora teres): 80%
protection (Botrytis cinerea): 75%

Clc1ccc(-c2nn(CCN3CCOCC3)cc2-c2ccncc2)s1 [Example 60]
log p ([1]; pH 2.7): 0.52^[b]
protection (Peronospora parasitica): 98%
protection (% of efficacy) (Sphaerotheca fuliginea): 75%

FCCn1cc(-c2ccncc2)c(-c2ccc(Cl)s2)n1 [Example 62]
logP value of the minor isomer (in parenthesis in column Isomer ratio [d]) ([1]; pH 2.7): (1.25)
log p ([1]; pH 2.7): 1.39^[b]
protection (Puccinia recondita): 88%
protection (Peronospora parasitica): 89%
protection (Botrytis cinerea): 98%
protection (% of efficacy) (Sphaerotheca fuliginea): 94%

CCOC(=O)Cn1cc(-c2ccncc2)c(-c2ccc(Cl)s2)n1 [Example 63]
log p ([1]; pH 2.7): 1.67^[b]
protection (Peronospora parasitica): 94%
protection (% of efficacy) (Sphaerotheca fuliginea): 88%

CC(=O)n1cc(-c2ccncc2)c(-c2ccc(Cl)s2)n1 [Example 86]
log p ([1]; pH 2.7): 2.04^[b]
protection (Puccinia recondita): 75%
protection (Peronospora parasitica): 92%

CCn1cc(-c2ccnc(N=C(c3ccccc3)c3ccccc3)c2)c(-c2ccc(Cl)s2)n1 [Example 311]
efficacy (Alternaria solani): 70%
log p [3]: 3.99^[a]

CC(C)Nc1nccc(-c2c[nH]nc2-c2ccc(Cl)s2)n1 [Example 312]
% Inhibition of fungal growth at 50 μM (Fusarium graminearum): 87%
% Inhibition of DON/AcDON at 50 μM (Fusarium graminearum): 99%
log p [3]: 1.79^[a]

CC(C)Cn1cc(-c2ccnc(NC(=O)OC(C)C)c2)c(-c2ccc(Cl)s2)n1 [Example 319]
log p [3]: 5.15^[a]

CC(C)Cn1cc(-c2ccnc(NC(=O)c3cccs3)c2)c(-c2ccc(Cl)s2)n1 [Example 320]
log p [3]: 4.62^[a]

CCNC(=O)Nc1cc(-c2cn(CC(C)C)nc2-c2ccc(Cl)s2)ccn1 [Example 321]
% Inhibition of fungal growth at 50 μM (Fusarium graminearum): 39%
% Inhibition of DON/AcDON at 50 μM (Fusarium graminearum): 92%
log p [3]: 3.18^[a]

CC(=O)Nc1cc(-c2cn(CC(C)C)nc2-c2ccc(Cl)s2)ccn1 [Example 358]
% Inhibition of fungal growth at 50 μM (Fusarium graminearum): 102%
% Inhibition of DON/AcDON at 50 μM (Fusarium graminearum): 100%
efficacy (Alternaria solani): 100%
protection (Pyrenophora teres): 80%
log p [3]: 2.96^[a]

CC(C)Cn1cc(-c2ccnc(NC(=O)C3CC3)c2)c(-c2ccc(Cl)s2)n1 [Example 359]
% Inhibition of fungal growth at 50 μM (Fusarium graminearum): 62%
% Inhibition of DON/AcDON at 50 μM (Fusarium graminearum): 100%
efficacy (Alternaria solani): 94%
protection (Pyrenophora teres): 70%
log p [3]: 3.48^[a]
efficacy (Leptosphaeria nodorum): 90%

COCC(=O)Nc1cc(-c2cn(CC(C)C)nc2-c2ccc(Cl)s2)ccn1 [Example 360]
% Inhibition of fungal growth at 50 μM (Fusarium graminearum): 12%
% Inhibition of DON/AcDON at 50 μM (Fusarium graminearum): 100%
efficacy (Alternaria solani): 78%
log p [3]: 3.78^[a]

CC(C)Cn1cc(-c2ccnc(NC(=O)C3CCC3)c2)c(-c2ccc(Cl)s2)n1 [Example 361]
efficacy (Alternaria solani): 94%
log p [3]: 3.96^[a]

CC(C)Cn1cc(-c2ccnc(NS(C)(=O)=O)c2)c(-c2ccc(Cl)s2)n1 [Example 362]
log p [3]: 3.04^[a]
